# Experimental data published in patent US10501473B2, “Fused heterocyclic ring compounds and method of treating retinal disease using same” (THE INDUSTRY & ACADEMIC COOPERATION IN CHUNGNAM NATIONAL …, priority 2014, dated 2019).
# Key:
# [1] = target: RIPK1 (receptor-interacting serine/threonine-protein kinase 1) (Homo sapiens (Human), UniProt Q13546); assay: RIPK1 inhibitory activity, autophosphorylation of immuno-precipitated RIPK1 with [32P]γ-ATP; format: biochemical; settings: for activity at 100 µM: compound 100 μM, remaining RIPK1 phosphorylation; for inhibition at 100 µM: Table 2, 100 μM
# Description: The following experiment was performed to evaluate RIPK1 (receptor-interacting serine/threonine-protein kinase 1) inhibitory activity of the compounds of examples of the invention.
# RIPK1 enzyme immuno-precipitated in HEK293 (Human Embryonic Kidney 293) cell lysate was used as kinase. The experiment was performed according to the method described in Cell. 12; 137(6):1112-23(2009). RIPK1 protein was over-expressed in HEK293 cell line, to which lysis buffer (50 mM Tris-Cl [pH 8.0], 150 mM NaCl, 1 mM EDTA, 1% NP-40, 0.4 mM phenylmethylsulfonyl fluoride (PMSF)) was added for cell lysis. Centrifugation was performed at 13,000 rpm for 10 minutes to separate the supernatant. RIPK1 monoclonal antibody (610459, BD Bioscience) and A/G agarose beads (sc-2003, Santa Cruz Biotechnology) were added thereto, followed by immuno-precipitation in a 4° C. rotator for 12 hours.
# The immune complex was washed with lysis buffer twice and then washed with kinase assay buffer (20 mM HEPES [pH7.6], 2 mM DTT, 1 mM NaF, 1 mM Na3Vo4, 20 mM β-glycerophosphate, 20 mM PNPP, 20 mM MgCl2, 20 mM MnCl2, 1 mM Benzamidie, and 1 mM EDTA) lastly. Kinase assay buffer and the compound were added to the RIPK1 immuno-precipitate, followed by reaction in a 24° C. constant-temperature water bath for 15 minutes. Additional reaction was induced for 30 minutes at 30° C. after 100 μM of ATP and 10 μCi[^32P] γ-ATP were added thereto. The reaction mixture was washed with kinase assay buffer once, to which protein loading buffer was added, followed by heating at 100° C. for 3 minutes. The reaction mixture was then loaded on 8% SDS-PAGE gel. Radioactive image of the phosphorylated RIPK1 was detected with FLA-7000 (GE healthcare). The image Quant TL program was used for the quantification.
# [2] = test system: RGC-5 (rat ganglion cell-5); assay: Retinal neuron protection under necroptosis inducing (TCZ; TNFα+cycloheximide+zVAD) condition, LDH assay; format: cell-based; settings: RGC-5, TCZ 15 hours, compound 20 μM, DMSO control = 100%
# Description: The following experiment was performed to evaluate the retinal neuron protection effect of the compounds of the invention under necroptosis inducing condition.
# The retinal ganglion cell line RGC-5 (rat ganglion cell-5) was cultured in DMEM (Dulbecco's modified Eagle's medium) supplemented with 10% FBS (fetal bovine serum) and 1% penicillin/streptomycin. The cells were distributed in a 96-well plate at the density of 8×10^3 cells/well, followed by culture in a 37° C., CO2 incubator for 12 hours. The medium supplemented with TNFα (10 ng/ml), cycloheximide (10 μg/ml), and zVAD (10 μM) (TCZ) was treated with DMSO (0.1%) alone (control) or with the compounds of the invention (20 μM), followed by additional culture in a 37° C., CO2 incubator for 15 hours to induce cell death.
# The level of cell death was measured by LDH (lactate dehydrogenase, Roche) assay. The level of the control LDH under TCZ condition was regarded as 100%, and the level of LDH in the cell group cultured in normal medium (10% FBS, DMEM) for the same time was used for the measurement of the relative rate of cell death. The compounds of examples of the invention were treated to wells, each compound for three wells, and then each experiment was performed in triplicate.
# [3] = test system: RGC-5 (rat ganglion cell); assay: Retinal nerve protection under oxygen-glucose deprivation (OGD), LDH assay; format: cell-based; settings: RGC-5, OGD 15 hours, compound 20 μM, DMSO control = 100%
# Description: The following experiment was performed to evaluate the protective effect of the compounds of examples of the invention on the retinal nerve under oxygen-glucose deprivation condition.
# The retinal ganglion cell line RGC-5 (rat ganglion cell) was cultured in DMEM (Dulbecco's modified Eagle's medium) supplemented with 10% FBS (fetal bovine serum) and 1% penicillin/streptomycin. The cells were distributed in a 96-well plate at the density of 8×10^3 cells/well, followed by culture in a 37° C., CO2 incubator for 12 hours. The cells were washed with PBS once and the medium was replaced with glucose free DMEM. The cells were treated with either DMSO (0.1%) alone (control) or with the compounds of examples (20 μM) shown in Table 3, followed by culture in an anaerobic incubator (10% H2, 5% CO2, 85% N2, 37° C., chamber (ThermoForma, USA)) for 15 hours to induce cell death.
# The level of cell death was measured by LDH (lactate dehydrogenase, Roche) assay. The LDH assay is a method for measuring the activity of LDH released from the damaged cells into the culture medium. NAD^+ was reduced to NADH and H^+ by LDH, and the bond of tetrazolium salt INT ring was cleaved by diaphorase to form formazan. Absorbance of the formazan was measured at 490 nm by using Victor 3 (PerkinElmer). The absorbance reflects the amount of dead cells.
# The level of the control LDH under oxygen-glucose deprivation condition was regarded as 100%, and the level of LDH in the cell group cultured in normal medium (10% FBS, DMEM) for the same time was regarded as 0%. Based on that, the levels of LDH of the cell groups treated with the compounds of the invention under oxygen-glucose deprivation condition were converted into the relative ratio of cell death. The compounds of examples of the invention were treated to wells, each compound for three wells, and then each experiment was performed in triplicate.
# Chain of RIPK1 (receptor-interacting serine/threonine-protein kinase 1) (Q13546 whole entry, species assumed): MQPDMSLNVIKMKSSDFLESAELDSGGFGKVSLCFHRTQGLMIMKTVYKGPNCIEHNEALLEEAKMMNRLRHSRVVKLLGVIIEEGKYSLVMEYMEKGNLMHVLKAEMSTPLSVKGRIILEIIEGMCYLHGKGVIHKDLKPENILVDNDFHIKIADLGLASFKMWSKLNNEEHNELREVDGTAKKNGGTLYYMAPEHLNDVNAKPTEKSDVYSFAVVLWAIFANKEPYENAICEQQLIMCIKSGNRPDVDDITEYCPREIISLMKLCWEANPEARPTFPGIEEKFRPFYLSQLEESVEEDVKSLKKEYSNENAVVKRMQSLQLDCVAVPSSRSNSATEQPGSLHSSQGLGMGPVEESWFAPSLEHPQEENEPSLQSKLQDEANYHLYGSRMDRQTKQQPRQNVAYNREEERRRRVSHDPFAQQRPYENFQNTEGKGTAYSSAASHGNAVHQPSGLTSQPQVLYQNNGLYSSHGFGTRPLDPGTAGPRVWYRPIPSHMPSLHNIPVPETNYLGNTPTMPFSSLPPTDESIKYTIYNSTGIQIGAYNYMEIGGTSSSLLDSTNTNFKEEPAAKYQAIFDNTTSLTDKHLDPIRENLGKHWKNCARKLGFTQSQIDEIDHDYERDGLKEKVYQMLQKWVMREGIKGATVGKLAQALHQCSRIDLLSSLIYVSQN
SMILES,activity at 100 µM [1],Death of retinal nerve cell (%) [2],Death of retinal nerve cell (%) [3],inhibition at 100 µM [1]
"O=C(c1cc2c(Br)cnc(Cl)c2s1)N1CCOCC1 [Example 1, (4-bromo-7-chlorothieno[2,3-c]pyridine-2-yl)(morpholino)methanone]",52.5 ± 7.8%,79.3 ± 3.2%,–,–
"O=C(c1cc2c(Br)cncc2s1)N1CCOCC1 [Example 3, (4-bromothieno[2,3-c]pyridine-2-yl)(morpholino)methanone]",52 ± 2.8%,79.6 ± 3.2%,–,–
"O=C(c1cc2c(-c3ccc(F)cc3)cnc(Cl)c2s1)N1CCOCC1 [Example 5, (7-chloro-4-(4-fluorophenyl)thieno[2,3-c]pyridine-2-yl)(morpholino)methanone]",85.1 ± 24.7%,57.6 ± 19.2%,62.1 ± 3.7%,–
"Fc1ccc(-c2cccc3sc(CN4CCOCC4)cc23)cc1 [Example 7, 4-((4-(4-fluorophenyl)benzo[b]thiophene-2-yl)methyl)morpholine]",87.1 ± 17.7%,63.2 ± 3.9%,90.0 ± 3.3%,–
"O=C(c1cc2cc(Cl)ccc2[nH]1)N1CCOCC1 [Example 12, (5-chloro-1H-indole-2-yl)(morpholino)methanone]",60%,50.5 ± 7.4%,35.7 ± 0.1%,–
"Cc1ccc2[nH]c(C(=O)N3CCOCC3)nc2c1 [Example 13, (5-methyl-1H-benzo[d]imidazole-2-yl)(morpholino)methanone]",83.4 ± 16.1%,71.2 ± 7.0%,69.6 ± 2.0%,–
"O=C(c1nc2cc(Br)ccc2[nH]1)N1CCOCC1 [Example 14, (5-bromo-1H-benzo[d]imidazole-2-yl)(morpholino)methanone]",62 ± 6.2%,81.1 ± 15.2%,82.1 ± 11.2%,–
"O=C(c1cc2ccccc2o1)N1CCOCC1 [Example 15, benzofuran-2-yl(morpholino)methanone]",85.6 ± 26.7%,72.6 ± 6.8%,42.7 ± 2.0%,–
"O=C(c1cc2cc(Br)ccc2o1)N1CCOCC1 [Example 16, (5-bromobenzofuran-2-yl)(morpholino)methanone]",88 ± 24.7%,59.4 ± 11.3%,19.3 ± 1.4%,–
"O=C(c1cc2c(Nc3ccc(F)cc3F)cccc2s1)N1CCOCC1 [Example 58, (4-(2,4-difluorophenylamino)benzo[b]thiophene-2-yl)(morpholino)methanone]",78.5 ± 30.4%,–,89.4 ± 6.4%,–
"O=C(c1cc2c(Oc3ccc(F)cc3)cccc2s1)N1CCOCC1 [Example 59, (4-(4-fluorophenoxy)benzo[b]thiophene-2-yl)(morpholino)methanone]",21 ± 7.1%,–,59.5 ± 14.7%,≥ 50%
"O=C(c1cc2c(CCc3ccc(F)cc3)cccc2s1)N1CCOCC1 [Example 60, (4-(4-fluorophenethyl)benzo[b]thiophene-2-yl)(morpholino)methanone]",22 ± 15.6%,–,89.8 ± 10.7%,≥ 50%
"O=C(c1cc2c(OCc3ccc(F)cc3)cccc2s1)N1CCOCC1 [Example 61, (4-(4-fluorobenzyloxy)benzo[b]thiophene-2-yl)(morpholino)methanone]",22.5 ± 12%,–,53.5 ± 14.5%,≥ 50%
"O=C(c1cc2c(S(=O)(=O)Cc3ccc(F)cc3)cccc2s1)N1CCOCC1 [Example 62, (4-(4-fluorobenzylsulfonyl)benzo[b]thiophene-2-yl)(morpholino)methanone]",82.5 ± 5%,–,59.3 ± 16.3%,–
"COS(=O)c1ccc(-c2cccc3sc(C(=O)N4CCOCC4)cc23)cc1 (stereo not drawn) [Example 64, methyl 4-(2-(morpholine-4-carbonyl)benzo[b]thiophene-4-yl)benzene sulfinate]",83.6 ± 12.7%,–,63.0 ± 17.8%,–
"Cl.O=C(c1cc2c(-c3ccc(F)nc3)cccc2s1)N1CCOCC1 [Example 66, (4-(6-fluoropyridine-3-yl)benzo[b]thiophene-2-yl)(morpholino)methanone hydrochloride]",11.5 ± 4.9%,–,45.2 ± 10.5%,–
"O=C(c1cc2c(Cc3ccc(F)cc3)cccc2s1)N1CCOCC1 [Example 67, (4-(4-fluorobenzyl)benzo[b]thiophene-2-yl)(morpholino)methanone]",49.5 ± 3.5%,–,59.3 ± 14.9%,≥ 50%
"O=C(c1cc2c(Nc3ccc(F)cc3)cccc2s1)N1CCOCC1 [Example 68, (4-(4-fluorophenylamino)benzo[b]thiophene-2-yl)(morpholino)methanone]",33.5 ± 12%,–,58.3 ± 11.9%,≥ 50%
"CN(c1ccc(F)cc1)c1cccc2sc(C(=O)N3CCOCC3)cc12 [Example 69, (4-((4-fluorophenyl)(methyl)amino)benzo[b]thiophene-2-yl)(morpholino)methanone]",22.5 ± 16.3%,–,69.4 ± 10.9%,≥ 50%
"O=C(c1cc2c(NS(=O)(=O)c3ccc(F)cc3)cccc2s1)N1CCOCC1 [Example 70, 4-fluoro-N-(2-(morpholine-4-carbonyl)benzo[b]thiophene-4-yl)benzenesulfonamide]",65 ± 32.5%,–,48.7 ± 10.3%,–
"O=C(c1cc2c(SCc3ccc(F)cc3)cccc2s1)N1CCOCC1 [Example 71, (4-(4-fluorobenzylthio)benzo[b]thiophene-2-yl)(morpholino)methanone]",87 ± 4.2%,–,89.1 ± 14.9%,–
"Cn1c(C#N)ccc1-c1cccc2sc(C(=O)N3CCOCC3)cc12 [Example 72, 1-methyl-5-(2-(morpholine-4-carbonyl)benzo[b]thiophene-4-yl)-1H-pyrrole-2-carbonitrile]",7 ± 8.5%,–,58.5 ± 16.1%,–
"Cn1cc(-c2cccc3sc(C(=O)N4CCOCC4)cc23)cn1 [Example 73, (4-(1-methyl-1H-pyrazol-4-yl)benzo[b]thiophene-2-yl)(morpholino)methanone]",22 ± 19.8%,–,62.3 ± 10.1%,≥ 50%
